Assay results from patent EP0068268A1, “Enhancer of anti-tumour effect” (Yamasa Shoyu Kabushiki Kaisha, priority 1981, dated 1983).
Where two headings read alike, the source gives them in different places.

Key:
Acute toxicity test = experiment: Acute toxicity test; design: species or system ICR mice; settings: mouse, in vivo, ip
Procedure: Various quantities of N -butyryl-3'-dAdo were administered intraperitoneally to ICR mice (male, 8-weeks old, 10 mice for each group) in doses of 250 mg to 1,000 mg/kg, and the mice were subjected to observation for a week.

EMT-6 tumors [1] = experiment: Radiosensitizing effect on experimental tumors in mice (cure percentages and TCD50, Experiment 3); format: in vivo, BALB/c-strain female mice; settings: for TCD50: 100 mg/kg intraperitoneally after 32 MeV electron beam irradiation, control 2400; for Cure number/Number treated (%) / Cure number/Number treated: 100 mg/kg intraperitoneally after irradiation; for Cure number/Number treated (%): cure percentage; for Cure number/Number treated: observation longer than 90 days; for TCD50 (ratio): ratio to control (1.0)
Procedure: EMT-6 tumor cells ([…]) were inoculated intradermally into the right thighs of BALB/c-strain female mice (8 weeks old). When the tumor sizes reached 5.5 to 8.0 mm after inoculation of the tumor cells, irradiation was locally carried out with 1,000 rad to 2,700 rad of 32 MeV electron beam under no anesthesia, and thereafter 3'-dAdo and N^6-butyryl-3'-dAdo, each dissolved in physiological saline solution, were administered intraperitoneally in a dose of 100 mg/kg. After the treatments, observation was continued for longer than 90 days, and the cure percentages were determined for comparison with the control group. [formula] [formula]

EMT-6 tumors [2] = experiment: Enhancement of the effect of anti-tumor agents on experimental tumors in mice (Experiment 5); format: in vivo, BALB/c-strain mice; settings: 14th day after treatment
Procedure: EMT-6 tumor cells (1 x 10^6) were inoculated intradermally into the right thighs of BALB/c-strain mice (8 weeks old). On the 12th day after inoculation of the tumor cells and thereafter, each chemical in a physiological saline solution was administered intrapenitoneally to each mouse four times a week in the indicated doses for respective agents. The pharmaceutical agents of the present invention were administered one hour after administration of the anti-tumor agents. After commencement of the treatment with pharmaceutical agents, the tumor sizes were measured every other day and compared with those of the control group.

RIF1 tumors = experiment: Radiosensitizing effect on experimental tumors in mice (tumor size after irradiation, Experiment 4); format: in vivo, C3H/Heston-strain female mice; settings: for Mean tumor diameter (mm): n=7; for Sensitizing effect: relative to irradiation alone
Procedure: RIF1 tumor cells ([…]) were inoculated intradermally into the right thighs of C3H/Heston-strain female mice (8 weeks old). When the tumor sizes reached 6.0 to 10.0 mm after inoculation of the tumor cells, irradiation was carried out with 2,500 rad/min. of an electron beam, and thereafter N^6-acetyl-3'-dAdo, N^6-butyryl-3'-dAdo, N^6-hexanoyl-3'-dAdo, and N - octanoyl-3'-dAdo, each dissolved in physiological saline solution, were administered intraperitoneally in a dose of 100 mg/kg. After the treatments, the tumor sizes in terms of diameters in three-axial directions were measured on the 10th day and the 20th day (9th day and the 21st day only in case of N^6-butyryl-3'-dAdo).

EMT-6 tumors [3] = experiment: Radiosensitizing effect on experimental tumor in mice (tumor size after local irradiation, Experiment 2); format: in vivo, BALB/c-strain female mice; settings: for Mean tumor diameter (mm): 1,500 rad 32 MeV electron beam, n = 9; for Sensitizing effect: diameter ratio with agent / diameter ratio with irradiation alone
Procedure: EMT-6 tumor cells (2 x 10^5) were inoculated intradermally into the right thighs of BALB/c-strain female mice (8 weeks old, 6 or more mice for each group). When the tumor size reached 5.5 to 7.5 mm in diameter after inoculation of the tumor cells, local irradiation with a 32 MeV electron beam was carried out at 1,500 rad under no anesthesia and thereafter N^6-butyryl-3'-dAdo dissolved in physiological saline solution, was administered intraperitoneally to each mouse in 100 mg/kg. On the 9th day and 20th day after these treatments, t tumor sizes were measured in tri-dimensional diameters, and compared with the control group with respect to the following items: [formula] [formula] The results are shown in Table 2, in which "cure" means that the tumors completely vanished during the observation period.

[4] = test system: Chinese hamster-HA-1 cells; experiment: Radiosensitizing effect on the tumor cells in culture (PLDR inhibition, colony forming ability after X-rays); format: cell-based
Procedure: Cells under stationary phase, prepared by planting 2 x 10^5 cells/well of Chinese hamster-HA-1 cells in a multi-well dish and exchanging cultural medium every day starting on the third day and thereafter were irradiated with 1,000 R of X-rays. Immediately after radiation, N6-butyryl-3'-dAdo in Hanks' balanced salt solution were administered. Then, after elapse of various times, the cells were taken off with trypsin, and a suitable number of cells were transferred into petri dishes for testing colony forming ability and plating efficiencies. The percentages of survival were calculated with corrections by the plating efficiencies with the pharmaceutical agents alone.

[5] = 10th day after treatment, 2500 rad, then 100 mg/kg intraperitoneally
[6] = 20th day after treatment, 2500 rad, then 100 mg/kg intraperitoneally
[7] = 20th day after treatment, but 21st day for this compound
[8] = column head 10th day after treatment, but 9th day for this compound
[9] = FT-207 100mg/kg x 7 plus enhancer 50mg/kg x 7

Nc1ncnc2c1ncn2[C@@H]1O[C@H](CO)C[C@H]1O [3'-dAdo, 3'-deoxyadenosine, reference compound]
LD50 at 168 h (Acute toxicity test; intraperitoneally, ICR mice male, observation for a week, read-out: LD50): 280 mg/kg
TCD50 (EMT-6 tumors [1]): 1600
Cure number/Number treated (%) (EMT-6 tumors [1]; 1,000 rad): 17%
Cure number/Number treated (EMT-6 tumors [1]; 1,000 rad): 3/18
Cure number/Number treated (%) (EMT-6 tumors [1]; 1,500 rad): 48%
Cure number/Number treated (EMT-6 tumors [1]; 1,500 rad): 14/29
Cure number/Number treated (%) (EMT-6 tumors [1]; 2,100 rad): 79%
Cure number/Number treated (EMT-6 tumors [1]; 2,100 rad): 11/14
Cure number/Number treated (%) (EMT-6 tumors [1]; 2,700 rad): 67%
Cure number/Number treated (EMT-6 tumors [1]; 2,700 rad): 10/15
TCD50 (ratio) (EMT-6 tumors [1]): 0.67

O=c1[nH]c(=O)n(C2CCCO2)cc1F (stereo not drawn) [FT-207, 1-(2-tetrahydrofuryl)-5-fluorouracil, reference compound]
Diameter ratio, value in brackets (relative to control = 1.00) (EMT-6 tumors [2]; anti-tumor agent alone, 100mg/kg x 7): 0.76
Mean tumor diameter (mm) (EMT-6 tumors [2]; anti-tumor agent alone, 100mg/kg x 7 intraperitoneally, n = 4): 7.80±1.64 mm

CC(=O)Nc1ncnc2c1ncn2[C@@H]1O[C@H](CO)C[C@H]1O [N^6-acetyl-3'-dAdo]
Diameter ratio (RIF1 tumors; [5]): 1.12±0.06
Mean tumor diameter (mm) (RIF1 tumors; [5]): 7.86±0.55 mm
Sensitizing effect (RIF1 tumors; 10th day after treatment): 0.95
Diameter ratio (RIF1 tumors; [6]): 1.49±0.06
Mean tumor diameter (mm) (RIF1 tumors; [6]): 10.39±0.51 mm
Sensitizing effect (RIF1 tumors; 20th day after treatment): 0.84

CCCC(=O)Nc1ncnc2c1ncn2[C@@H]1O[C@H](CO)C[C@H]1O [N^6-butyryl-3'-dAdo]
LD50 at 168 h (Acute toxicity test): 710 mg/kg
Diameter ratio (RIF1 tumors; [7]): 1.35±0.08
Mean tumor diameter (mm) (RIF1 tumors; 20th day after treatment, but 21st day for this compound, 2500 rad, then 100 mg/kg intraperitoneally): 10.28±0.36 mm
Sensitizing effect (RIF1 tumors; [7]): 0.76
Diameter ratio (RIF1 tumors; [8]): 0.90±0.08
Mean tumor diameter (mm) (RIF1 tumors; column head 10th day after treatment, but 9th day for this compound, 2500 rad, then 100 mg/kg intraperitoneally): 6.71±0.63 mm
Sensitizing effect (RIF1 tumors; [8]): 0.76
Mean tumor diameter (mm) (EMT-6 tumors [3]; 9 days after treatment, then 100 mg/kg intraperitoneally): 5.36±1.13 mm
Diameter ratio (EMT-6 tumors [3]; 9 days after treatment, 1,500 rad, then 100 mg/kg intraperitoneally): 0.83±0.18
Sensitizing effect (EMT-6 tumors [3]; 9 days after treatment): 0.86
Mean tumor diameter (mm) (EMT-6 tumors [3]; 20 days after treatment, then 100 mg/kg intraperitoneally): 0.0±0.0 mm
Cured cases (EMT-6 tumors [3]; 20 days after treatment, cure = tumors completely vanished during the observation period, 1,500 rad + 100 mg/kg i.p.): 9/9
Sensitizing effect (EMT-6 tumors [3]; 20 days after treatment): 0.00
Plating efficiency (%) After 1 hour ([4]; 40 µg/ml given immediately after 1,000 R of X-rays, stationary phase cells, 1 hour after irradiation): 1.4%
Plating efficiency (%) After 4 hours ([4]; 40 µg/ml given immediately after 1,000 R of X-rays, stationary phase cells, 4 hours after irradiation): 2.2%
Plating efficiency (%) After 7 hours ([4]; 40 µg/ml given immediately after 1,000 R of X-rays, stationary phase cells, 7 hours after irradiation): 2.4%
inhibition of repair (PLDR) after irradiation with X-rays ([4]; result in words, from Table 1): inhibit repair (PLDR)
toxicity, as examined by plating efficiencies ([4]; result in words, agent alone): Substantially no toxicity was observed
TCD50 (EMT-6 tumors [1]): 1080
Cure number/Number treated (%) (EMT-6 tumors [1]; 1,000 rad): 40%
Cure number/Number treated (EMT-6 tumors [1]; 1,000 rad): 6/15
Cure number/Number treated (%) (EMT-6 tumors [1]; 1,500 rad): 65%
Cure number/Number treated (EMT-6 tumors [1]; 1,500 rad): 13/20
Cure number/Number treated (%) (EMT-6 tumors [1]; 2,100 rad): 93%
Cure number/Number treated (EMT-6 tumors [1]; 2,100 rad): 14/15
Cure number/Number treated (%) (EMT-6 tumors [1]; 2,700 rad): 100%
Cure number/Number treated (EMT-6 tumors [1]; 2,700 rad): 16/16
TCD50 (ratio) (EMT-6 tumors [1]): 0.45
Diameter ratio (mm) (EMT-6 tumors [2]; [9]): 0.97±0.23
Diameter ratio, value in brackets (relative to control = 1.00) (EMT-6 tumors [2]; [9]): 0.62
Mean tumor diameter (mm) (EMT-6 tumors [2]; FT-207 100mg/kg x 7 plus enhancer 50mg/kg x 7 given one hour later, n = 5): 6.72±1.69 mm
Diameter ratio (mm) (EMT-6 tumors [2]; enhancer alone, 50mg/kg x 7): 1.36±0.32
Diameter ratio, value in brackets (relative to control = 1.00) (EMT-6 tumors [2]; enhancer alone, 50mg/kg x 7): 0.87
Mean tumor diameter (mm) (EMT-6 tumors [2]; enhancer alone, 50mg/kg x 7 intraperitoneally, n = 5): 9.92±2.45 mm
Enhancing effect (EMT-6 tumors [2]; ratio in combination / (ratio anti-tumor agent alone x ratio enhancer alone), FT-207 100mg/kg x 7 plus enhancer 50mg/kg x 7): 0.94

CCCCCC(=O)Nc1ncnc2c1ncn2[C@@H]1O[C@H](CO)C[C@H]1O [N^6-hexanoyl-3'-dAdo]
Diameter ratio (RIF1 tumors; [5]): 1.11±0.05
Mean tumor diameter (mm) (RIF1 tumors; [5]): 7.90±0.47 mm
Sensitizing effect (RIF1 tumors; 10th day after treatment): 0.94
Diameter ratio (RIF1 tumors; [6]): 1.46±0.05
Mean tumor diameter (mm) (RIF1 tumors; [6]): 10.37±0.42 mm
Sensitizing effect (RIF1 tumors; 20th day after treatment): 0.82

CCCCCCCC(=O)Nc1ncnc2c1ncn2[C@@H]1O[C@H](CO)C[C@H]1O [N^6-octanoyl-3'-dAdo]
Diameter ratio (RIF1 tumors; [5]): 1.04±0.04
Mean tumor diameter (mm) (RIF1 tumors; [5]): 7.50±0.37 mm
Sensitizing effect (RIF1 tumors; 10th day after treatment): 0.88
Diameter ratio (RIF1 tumors; [6]): 1.33±0.02
Mean tumor diameter (mm) (RIF1 tumors; [6]): 9.61±0.46 mm
Sensitizing effect (RIF1 tumors; 20th day after treatment): 0.75
